Publication PMC7377239, “Cardiovascular Effects of Polychlorinated Biphenyls and Their Major Metabolites” (Environmental Health Perspectives, 2020)
Read-outs that look alike come from different tables or passages of the source.

Tested on: iCell cardiomyocytes (human iPSC-derived cardiomyocytes)
Test: Intracellular Ca2+ flux / beating parameters in iCell cardiomyocytes (FLIPR tetra), 90 min or 24 h
Assay type: cell-based
Conditions: Homo sapiens, Cardiomyocyte, 0.00 µM = 100.00; for activity at 0.1 µM: 0.10 µM
In short: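 PODs were defined as the concentration crossing one SD of the vehicle-control means (0.5% DMSO) on four-parameter logistic fits of Ca2+ trace metrics (peak height, frequency, peak-spacing CV, decay/rise ratio). Traces came from 100 s, 8 Hz FLIPR reads at 37 °C on calcium-dye-loaded iCell cardiomyocytes. Before reading, cells were treated for 90 min or 24 h from 5× chemical plates spanning 0.05–500 µM, in triplicate.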

[1] = 1.5 h, 90min, read-out: cm.amp.avg.90min
[2] = 1.5 h, 90min, read-out: cm.amp.cv.90min
[3] = 1.5 h, 90min, read-out: cm.bpm.90min
[4] = 1.5 h, 90min, read-out: cm.decay.rise.90min
[5] = 1.5 h, 90min, read-out: cm.spacing.cv.90min
[6] = 24 h, 24hrs, read-out: cm.amp.avg.24hrs
[7] = 24 h, 24hrs, read-out: cm.amp.cv.24hrs
[8] = 24 h, 24hrs, read-out: cm.bpm.24hrs
[9] = 24 h, 24hrs, read-out: cm.decay.rise.24hrs
[10] = 24 h, 24hrs, read-out: cm.spacing.cv.24hrs

## Clc1ccc(-c2cc(Cl)c(Cl)c(Cl)c2)cc1Cl [PCB126]
[1]
  activity at 0.01 µM: 100%
  activity at 0.1 µM: 102%
  activity at 1 µM: 102%
  activity at 10 µM: 90.3%
  activity at 100 µM: 117%
[2]
  activity at 0.01 µM: 110%
  activity at 0.1 µM: 139%
  activity at 1 µM: 114%
  activity at 10 µM: 363%
  activity at 100 µM: 120%
[3]
  activity at 0.01 µM: 107%
  activity at 0.1 µM: 97.8%
  activity at 1 µM: 105%
  activity at 10 µM: 128%
  activity at 100 µM: 135%
[4]
  activity at 0.01 µM: 102%
  activity at 0.1 µM: 99.8%
  activity at 1 µM: 96%
  activity at 10 µM: 83%
  activity at 100 µM: 86.2%
[5]
  activity at 0.01 µM: 135%
  activity at 0.1 µM: 119%
  activity at 1 µM: 115%
  activity at 100 µM: 106%
[6]
  activity at 0.01 µM: 73.3%
  activity at 0.1 µM: 79.8%
  activity at 1 µM: 72.2%
  activity at 10 µM: 78.8%
  activity at 100 µM: 20.9%
[7]
  activity at 0.01 µM: 143%
  activity at 0.1 µM: 120%
  activity at 1 µM: 128%
  activity at 10 µM: 38.8%
  activity at 100 µM: 121%
[8]
  activity at 0.01 µM: 100%
  activity at 0.1 µM: 100%
  activity at 1 µM: 104%
  activity at 10 µM: 68.7%
  activity at 100 µM: 70.6%
[9]
  activity at 0.01 µM: 101%
  activity at 0.1 µM: 109%
  activity at 1 µM: 97.6%
  activity at 10 µM: 50%
  activity at 100 µM: 29.1%
[10]
  activity at 0.01 µM: 122%
  activity at 0.1 µM: 117%
  activity at 1 µM: 113%
  activity at 10 µM: 66.1%
  activity at 100 µM: 81%
